The values that follow come from US8809373B2, “Pyridine non-classical cannabinoid compounds and related methods of use” (priority 2008, dated 2014).

Structures are written as SMILES.

Experiment [1] relates to glioblastoma brain cancer cell line LN-229. Kind of experiment: Cytotoxicity assay (CCK8 viability), LN-229. The conditions noted are these: Homo sapiens, LN-229 cells, 18 hours drug incubation, 1% FBS media. The experiment is classed as cell-based. Here is the method:
(§1) Cytoxocity assay: Cells were seeded on a 96 well polystyrene plate in full serum media at a density of 75,000 cells per milliliter, 100 μL per well. Plates were incubated at 37° C. and 5% CO2 for 24 hours to allow cell attachment. Drug solutions were prepared in DMSO at 100× concentration and mixed 1:100 in 1% FBS media to yield the desired concentration. Drug-media mixtures were vortexed immediately prior to administration to cells. Full serum media was removed and replaced with drug-media mixtures and incubated for 18 hours. 10 μL of Cell Counting Kit 8 (CCK8, Dojindo# CK04-11) was added to each well to colormetrically assess viability. After 2-4 hours of incubation with the CCK8 dye, absorbance was read at 450 nm by a BioTek Synergy 2 plate reader.
(§2) The cytotoxicity of selected compounds against the glioblastoma brain cancer cell line LN-229 is depicted in Table 1.

The subject of experiment [2] is glioblastoma brain cancer cell line DBTRG05MG. Kind of experiment: Cytotoxicity assay (CCK8 viability), DBTRG05MG. The experiment is classed as cell-based. The conditions noted are these: Homo sapiens, DBTRG-05MG, DBTRG05MG cells, 18 hours drug incubation, 1% FBS media. Here is the method:
as §1, §2

In the case of `CCCCCCC(C)(C)c1cc(O)c(-c2cccc(OC)c2)c(O)n1` [Compound 8m, 3-(3-Methoxyphenyl)-6-(2-methyloctan-2-yl)pyridine-2,4-diol], the EC50 worked out at 41.7 µM in experiment [1] and 56 µM in experiment [2]. The like results for `CC(C)(c1cc(O)c(-c2cc(Cl)cc(Cl)c2)c(O)n1)C1CCCCC1` [Compound 8b, 6-(2-Cyclohexylpropan-2-yl)-3-(3,5-dichlorophenyl)pyridine-2,4-diol] were, in that order, 5.9 µM and 9.8 µM. The like results for `CC(C)(c1ccccc1)c1cc(O)c(-c2cc(Cl)cc(Cl)c2)c(O)n1` [Compound 8c, 3-(3,5-Dichlorophenyl)-6-(2-phenylpropan-2-yl)pyridine-2,4-diol] were, in that order, 29.2 µM and 33.6 µM. With `CCCCCCC(C)(C)c1cc(O)c(-c2ccccc2)c(O)n1` [Compound 8j, 6-(2-Methyloctan-2-yl)-3-phenylpyridine-2,4-diol], the EC50 in experiment [1] is 52.6 µM; in experiment [2] it was 55.7 µM. Take `CCCCCCC(C)(C)c1cc(O)c(-c2cc(Cl)cc(Cl)c2)c(O)n1` [Compound 8e, 3-(3,5-dichlorophenyl)-6-(2-methyloctan-2-yl)pyridine-2,4-diol]: the EC50 in experiment [1] was determined as 1.6 µM; in experiment [2], 4.1 µM. The like results for `CCCCCCC(C)(C)c1cc(O)c(Cc2ccccc2)c(O)n1` [Compound 8n, 3-Benzyl-6-(2-methyloctan-2-yl)pyridine-2,4-diol] were, in that order, 13.1 µM and 25.2 µM. Taken in the same sequence, the figures for `CCCCCCC(C)(C)c1nc(O)c(-c2cccc(C)c2)c(O)n1` [Compound 8h, 2-(2-Methyloctan-2-yl)-5-m-tolylpyrimidine-4,6-diol] were 24.6 µM and 29.2 µM. For `Cc1cccc(-c2c(O)cc(C(C)(C)C3CCCCC3)nc2O)c1` [Compound 8f, 6-(2-Cyclohexylpropan-2-yl)-3-m-tolylpyridine-2,4-diol], the EC50 in experiment [1] turned out to be 71.1 µM.
